In patent publication US12318368B2, “Physics-driven discovery of novel small therapeutic compounds for use as a BCL-2 inhibitor” (BAHCESEHIR UNIVERSITESI, priority 2020, dated 2025):

System: HCT-116 cell lines
Test: MTT cell proliferation assay
Type: cell-based
Experimental: For cell culture experiments various cancer cell lines, HCT-116 colon cancer, U87-MG glial tumor, MCF7 breast cancer cell lines were used. Cells were seeded with high glucose DMEM medium (Biosera) supplemented with 10% FBS (Gibco) and 1× penicillin/streptomycin (Multicell). Twenty-four hours prior to molecule treatment, 10,000 cells were seeded into each well of 24-well cell culture plates. Molecules were used by preparing 4 mM stock solution in DMSO (Amresco). For molecule treatment, molecule stock solutions were diluted in DMEM with 10% FBS and added onto cells in each corresponding well. Final concentration of vehicle DMSO was 2% at maximum. […] We calculated the number of cells to be seeded to make sure that none of the cells reaches more than 60% confluency during the treatment period, as higher plate confluency levels would slow down cell proliferation independently from the molecule treatment.
Values of half-maximal inhibitory concentration were (IC50) determined by MTT cell proliferation assays. […] 570 nm absorbance values were recorded and IC50 values were calculated by dose response—inhibition curves and nonlinear regression analysis on GraphPad Prism 8 software. […] Following the initial incubation day, molecules were added and after incubation with MTT at 37° C. for 4 hours, formazan was solubilized with DMSO (Sigma-Aldrich, St. Louis, USA) and absorbance was measured at 570 nm. […]

## COCCN1C(=O)/C(=C/c2ccc(OCC(=O)Nc3ccc(C)cc3)cc2)S/C1=N\c1ccccc1 [compound of formula I]
HCT-116 cells, compared with vehicle (max 2% DMSO)
  proliferation of the HCT-116 cells versus vehicle group (FIG. 1): reduced proliferation and apoptotic cell structures
Homo sapiens, 72 h, HCT-116 colon cancer cells, MTT, single treatment, three days results, absorbance 570 nm, read-out: IC50 (half-maximal inhibitory concentration)
  IC50: 25 µM
